This is an account of results in publication PMC3292553, “Flavonoid Glycosides Isolated from Unique Legume Plant Extracts as Novel Inhibitors of Xanthine Oxidase” (PLoS ONE, 2012).

The assay deals with T1, Xanthine oxidase from bovine milk (Bos taurus, UniProt P80457).
T1 construct: Xanthine oxidase from bovine milk and allopurinol were purchased from Sigma-Aldrich; purchased Sigma-Aldrich (St Louis MO, USA); host or cells: bovine milk (natural source)
Kind of assay: Assessment of XO activity (formation of uric acid from xanthine, 295 nm). The assay is classed as biochemical. As to conditions: pure compounds; for Inhibition type: kinetic analysis; for Ki: kinetic analysis (Lineweaver-Burk, Grafit 6); for IC50: XO inhibition.

T1 sequence (P80457 whole entry): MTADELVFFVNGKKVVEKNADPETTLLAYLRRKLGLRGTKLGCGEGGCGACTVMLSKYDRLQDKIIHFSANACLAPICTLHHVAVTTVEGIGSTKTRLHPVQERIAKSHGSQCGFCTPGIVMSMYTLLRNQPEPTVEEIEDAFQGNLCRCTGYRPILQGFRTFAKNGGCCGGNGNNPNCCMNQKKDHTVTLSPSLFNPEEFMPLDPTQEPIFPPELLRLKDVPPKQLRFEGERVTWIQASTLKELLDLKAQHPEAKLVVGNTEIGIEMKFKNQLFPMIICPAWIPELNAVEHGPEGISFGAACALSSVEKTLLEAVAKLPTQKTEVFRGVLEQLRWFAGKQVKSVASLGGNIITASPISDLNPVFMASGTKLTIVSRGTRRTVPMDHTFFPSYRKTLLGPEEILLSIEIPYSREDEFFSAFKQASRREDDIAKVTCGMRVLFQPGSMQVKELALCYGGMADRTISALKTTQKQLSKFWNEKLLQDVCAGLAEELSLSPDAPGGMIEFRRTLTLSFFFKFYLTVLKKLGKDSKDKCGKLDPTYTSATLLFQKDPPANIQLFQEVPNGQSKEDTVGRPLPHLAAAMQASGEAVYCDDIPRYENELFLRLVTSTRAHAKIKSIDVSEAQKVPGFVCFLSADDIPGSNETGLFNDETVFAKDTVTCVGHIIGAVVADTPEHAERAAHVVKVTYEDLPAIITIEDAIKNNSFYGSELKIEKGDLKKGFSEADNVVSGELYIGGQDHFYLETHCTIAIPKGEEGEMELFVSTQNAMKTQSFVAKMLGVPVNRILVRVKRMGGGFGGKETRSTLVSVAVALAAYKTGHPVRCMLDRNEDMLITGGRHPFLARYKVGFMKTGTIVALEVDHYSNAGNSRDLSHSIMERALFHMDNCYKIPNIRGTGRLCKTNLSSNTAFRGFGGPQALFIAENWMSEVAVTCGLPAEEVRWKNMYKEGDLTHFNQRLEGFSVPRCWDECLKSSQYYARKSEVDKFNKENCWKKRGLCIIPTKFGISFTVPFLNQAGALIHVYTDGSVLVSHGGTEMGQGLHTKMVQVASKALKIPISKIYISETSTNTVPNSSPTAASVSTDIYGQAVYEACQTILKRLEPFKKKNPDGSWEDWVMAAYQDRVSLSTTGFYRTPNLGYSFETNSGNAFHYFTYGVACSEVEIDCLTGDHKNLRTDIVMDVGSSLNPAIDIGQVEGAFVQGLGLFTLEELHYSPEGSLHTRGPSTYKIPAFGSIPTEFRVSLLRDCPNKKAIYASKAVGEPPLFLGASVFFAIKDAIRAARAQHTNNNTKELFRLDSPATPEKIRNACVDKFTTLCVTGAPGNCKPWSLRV
Description: XO activity was determined by measuring the formation of uric acid from xanthine within a set time. Changes in the levels of uric acid produced through the presence of the test samples allow the potency of inhibitors to be assessed. Initially the effect of the polyphenolic fractions and compounds on the inhibition of enzymatic activity was assessed at substrate concentration where maximum velocity was obtained. All initial reaction rates were in the linear scale and were measured over the first 4 min of the reaction. Each assay was performed in triplicates and the optical density was measured using a Hitachi U-1500 Spectrophotometer (San Jose, USA). […] The reaction was initiated through the addition of 43 mU unit of XO diluted in H2O. […] Control samples were prepared identically to the test samples without the addition of the specimen.
The measured absorbance was corrected for the contribution of the tested fractions and the pure polyphenolic compounds.
Statistical computations were carried out using SPSS 13.0 software. For statistical analysis, one-way ANOVA was applied followed by Dunnett's test for multiple pair-wise comparisons. Differences were considered significant at p<0.05. The steady state kinetic parameters (Km and Vmax) were determined (under standard assays conditions) by analyzing formation of uric acid from xanthine under initial rate conditions using the Lineweaver-Burk linearization of the Micaelis-Menten equation. The Ki values and the apparent kinetic parameters Km and Vmax were analyzed with the statistic package Grafit 6 (Erithacus Software, Ltd., Horley, UK).

On to `Oc1ncnc2[nH]ncc12` [Allopurinol, 4-hydroxypyrazolo (3,4-d) pyrimidine, reference compound], for which the Inhibition type result is “Competitive”. In the case of `CC1OC(Oc2cc(O)c3c(=O)c(OC4OC(CO)C(O)C(O)C4OC4OC(C)C(O)C(O)C4O)c(-c4ccc(O)c(O)c4)oc3c2)C(O)C(O)C1O` [Compound 1, Quercetin 3-O-[α-L-rhamnopyranosyl(1→2)-β-D-galactopyranosyl]-7-O-α-L-rhamnopyranoside], the Inhibition type result is “Non competitive” and the Ki was 115 µM. For the compound `CC1OC(Oc2cc(O)c3c(=O)c(OC4OC(CO)C(O)C(O)C4OC4OC(C)C(O)C(O)C4O)c(-c4ccc(O)c(O)c4)oc3c2)C(O)C(O)C1O` [Compound 2, Quercetin 3-O[α-L-rhamnopyranosyl(1→2)-β-D-glucopyranosyl]-7-O-α-L-rhamnopyranoside], affinity was put at a Ki of 186 µM.

As to `CC1=CC(=O)CC(C)(C)C1(O)C=CC(C)OC1OC(CO)C(O)C(O)C1O` [Compound 3, (6S,9R)-Roseoside], the Inhibition type result was “Non competitive” and the affinity, expressed as Ki, was 767 µM. For the compound `CC1OC(Oc2cc(O)c3c(=O)c(OC4OC(CO)C(O)C(O)C4OC4OC(C)C(O)C(O)C4O)c(-c4ccc(O)cc4)oc3c2)C(O)C(O)C1O` [Compound 4a, Kaempferol 3-O-[α-L-rhamnopyranosyl(1→2)-β-D-glucopyranosyl]-7-O-α-L-rhamnopyranoside], the Inhibition type result was “Non competitive” and the Ki came out at 651 µM.

On to `CC1OC(Oc2cc(O)c3c(=O)c(OC4OC(CO)C(O)C(O)C4OC4OC(C)C(O)C(O)C4O)c(-c4ccc(O)cc4)oc3c2)C(O)C(O)C1O` [Compound 4b, Kaempferol 3-O-[α-L-rhamnopyranosyl(1→2)-β-D-galactopyranosyl]-7-O-α-L-rhamnopyranoside], for which the affinity corresponds to a Ki of 50 µM. Turning to `CC1OC(Oc2cc(O)c3c(=O)c(OC4OC(CO)C(O)C(O)C4O)c(-c4ccc(O)cc4)oc3c2)C(O)C(O)C1O` [Compound 5, Kaempferol 3-O-β-D-galactopyranosyl-7-O-α-L-rhamnopyranoside], the Inhibition type entry was “Non competitive” and affinity was put at a Ki of 345 µM. On to `CC1OC(Oc2cc(O)c3c(=O)c(OC4OCC(O)C(O)C4O)c(-c4ccc(O)cc4)oc3c2)C(O)C(O)C1O` [Compound 9, Kaempferol 3-O-α-L-arabinopyranosyl-7-O-α-L-rhamnopyranoside], for which 112 µM corresponded to half-maximal inhibition (IC50); the Inhibition type entry is listed as “Non competitive”; the affinity, expressed as Ki, was 210 µM.

Take `CC1OC(Oc2cc(O)c3c(=O)c(OC4OC(CO)C(O)C(O)C4O)c(-c4ccc(O)cc4)oc3c2)C(O)C(O)C1O` [Compound 10, Kaempferol 3-O-β-D-glucopyranosyl-7-O-α-L-rhamnopyranoside]: the midpoint of inhibition, the IC50, lay at 70.6 µM; the Inhibition type result was “Non competitive”; the Ki was 177 µM.
